Test results published in patent publication US20060234276A1, “Methods of treatment of type 2 diabetes” (priority 1998, published 2006).
Peptide text beside a SMILES is read from it.

Columns and labels:
rat adipocytes = assay: 2-Deoxyglucose uptake into adipocytes; format: cell-based; details: 100 μM ALLM or 200 μM E-64-d
Description: Adipocytes were isolated from epididymal fat pads of 3 month old male Wistar rats as described previously (Robdell, 1964) with the following modification: fat pads were minced to 1-2 mm pieces and incubated for ˜25 min at 37° C. with collagenase I (1 mg/ml, Worthington Biochemicals, Lakewood, N.J.) in KRB containing 10 mM Hepes (pH 7.4), 0.2% BSA and 2 mM sodium pyruvate. The cell suspension was filtered through a nylon mesh (134 μM, Spectrum Lab., Laguna Hills, Calif.) washed three times by floating and allowed to rest for 45 min in the KRB. […] Then another 50 μl of KRB containing 5 mM 2-DOG (final concentration 1 mM), 0.5 μCi of 2-deoxy-[2,6-^3H]glucose was added and cells were incubated for a further 5 min at 25° C. The transport was stopped by adding cytochalasin B (final concentration 50 μM) and cells were spun through 250 μl of dinonyl phthalate oil (Fisher Scientific, Pittsburgh, Pa.). Cells were then transferred to scintillation vials for counting.

perifused mouse islets = assay: Insulin secretion from perifused islets; format: cell-based; details: 4 hr preincubation; 100 μM ALLM, 200 μM E-64-d
Description: Insulin secretion from perifused islets. Insulin secretion from perifused islets was measured using a modification of a previously described protocol (Pontoglio et al., 1998; Sreenan et al., 1998).

mouse islets [1] = assay: Measurement of islet [Ca2+]i (Fura-2); format: cell-based
Description: (§1) Measurement of islet [Ca^2+]i, and NAD(P)H. Islet [Ca^2+]i and NAD(P)H were measured as previously described (Pontoglio et al., 1998; Dukes et al., 1998).
Insulin secretory responses to glucose and most other secretagogues is mediated by a rise in intracellular free calcium ([Ca^2+]i). We therefore measured [Ca^2+]i responses to glucose, KIC and KCl using Fura-2 as the Ca^2+ indicator. In comparison to the responses from the control islets, the most prominent abnormality in [Ca^2+]i responses to glucose and KIC was a delay of the [Ca^2+]i responses (FIG. 21). The mean time interval between administration of 14 mM glucose and the point of half maximal response (T1/2.) was 120±14 seconds in control islets. […] There was no delay in the appearance of [Ca^2+]i response to KCl, nor was the magnitude of the response reduced.

mouse islets [2] = assay: Glucose utilization and oxidation rates in islets; format: cell-based
Description: Glucose utilization and oxidation rates. Glucose utilization and oxidation rates were measured as previously described (Dukes et al., 1998; Zhou et al., 1996) in mouse islets cultured as described above in the presence or absence of calpain inhibitors.

isolated β-cells = assay: Membrane capacitance recordings (exocytosis) in isolated β-cells; format: cell-based, mouse
Description: Isolation of pancreatic β-cells. Single β-cells were obtained from isolated islets dispersed by gentle trituration (120 strokes through a 200 μl pipette tip) in Ca^2+ and Mg^2+-free PBS containing […]. Cells were plated on glass coverslips and maintained in culture in RPMI containing 11.6 mM glucose for 48-96 hr.
Capacitance recordings. Capacitance measurements were made with the phase-tracking technique in which a 60 mV peak-to-peak sine wave was superimposed on a holding potential of −80 mV as previously described. Conductance and capacitance values were continuously generated and recorded. The whole-cell capacitance was canceled with the slow capacitance compensation; unbalancing the slow capacitance compensation by 100 fF provided the capacitance calibration signal used to calculate changes in membrane capacitance. The sinusoidal voltage template was interrupted to deliver depolarizations to a cell. Beta cells were stimulated with a train of ten step depolarizations to +20 mV (HP=−80 mV). Each step depolarization lasted 150 ms and was separated by 400 ms interpulse duration. Capacitance measurements were carried out in the perforated whole-cell configuration. The data were collected at a 500 μsec sampling rate and filtered at 5 kHz. Recordings with series resistance >20 MΩ were discarded. Series resistance compensation was applied in all recordings.
The recording solution for the capacitance measurements contained (in mM): 130 NaCl, 2 glucose, 10 Na-HEPES, 1 MgCl2, 2 KCl, and 5 CaCl2, pH 7.3 with NaOH. The pipette solution contained (in mM): 135 Cs-glutamate, 10 Na-HEPES, 9.5 NaCl, 0.5 TEACl, and 0.5 CaCl2, pH7.3 with CsOH. The pipettes were backfilled with an identical solution to which amphotericin B (final concentration of 0.5 mg/ml) was added and then sonicated. The amphotericin B stock solution (125 mg/ml) was kept frozen at −20° C. and used for one week. ALLM pre-treatment was as described above (see patch-clamp electrophysiology section). All electrophysiological recordings were carried out at room temperature (22-24° C.)

soleus muscle strips = assay: Glycogen synthesis rates in skeletal muscle; format: cell-based, rat; details: 100 μM ALLM or 200 μM E-64-d
From the text: Glycogen synthesis rates in skeletal muscle.

islets = assay: Insulin content of islets after 48 h inhibitor exposure; format: cell-based, mouse; details: 48 hours treatment
mouse islets [3] = assay: Islet NAD(P)H autofluorescence response; format: cell-based
Description: as §1

## CSCC[C@@H](C=O)NC(=O)[C@H](CC(C)C)NC(=O)[C@H](CC(C)C)NC(C)=O [ALLM, N-Ac-Leu-Leu-methioninal] (Ac-Leu-Leu-Met-aldehyde)
Rat adipocytes; insulin 12 nmol/L
  2-DOG uptake into adipocytes with insulin: 751±71 pmol/2×10^5 cells/5 min
Rat adipocytes; no insulin
  2-DOG uptake into adipocytes without insulin: 598±102 pmol/2×10^5 cells/5 min
Perifused mouse islets
  enhancement of insulin secretory response to 20 mM glucose in dynamic islet perifusion: also observed
Mouse islets [1]; 4 hr preincubation, 14 mM glucose
  [Ca2+]i response to high glucose: not associated with increases in [Ca^2+]i
Mouse islets [1]; 48 h treated islets
  [Ca2+]i response to glucose ramp (2 to 26 mM over 48 mins): diminished
  [Ca2+]i responses to 30 mM KCl vs control: not different
  integrated [Ca2+]i responses (area under the curves) to glucose and KIC vs control: significantly smaller
Mouse islets [1]; 48 h treated islets, control 120±14 seconds
  T1/2 of [Ca2+]i response to 14 mM glucose (time to half maximal response): 5.32 ± 0.7 min
Mouse islets [1]; 48 h treated islets, control 125±9
  T1/2 of [Ca2+]i response to KIC: 4.18 ± 0.7 min
Mouse islets [2]; 2 mM glucose, 100 μM ALLM or 200 μM E-64-d, 4 h
  rate of glucose utilization at basal glucose: 14.5±3.6 pmol/islet/hr
Mouse islets [2]; 20 mM glucose, 100 μM ALLM or 200 μM E-64-d, 4 h
  rate of glucose utilization at stimulatory glucose: 89.5±3.0 pmol/islet/hr
Mouse islets [2]; 48 h treated islets
  rate of basal glucose utilization and oxidation at 3.3 mM glucose: no significant changes
Mouse islets [2]; 48 h treated islets vs controls
  rates of glycolysis and glucose oxidation at stimulating concentrations of glucose: significantly reduced
Mouse islets [2]; basal glucose, ALLM or E-64-d, 4 h
  glucose oxidation rate at basal glucose: 6.0±0.7 pmol/islet/hr
Mouse islets [2]; stimulatory glucose, ALLM or E-64-d, 4 h
  glucose oxidation rate at stimulatory glucose: 39.5±4.1 pmol/islet/hr
Isolated β-cells; 4 days culture with inhibitor
  rates of exocytosis in β-cells: significantly lower rates of exocytosis
Isolated β-cells; ALLM 100 μM pre-treatment, vs control cells
  change in membrane capacitance elicited by train of depolarizations: much larger average changes in membrane capacitance
Soleus muscle strips; insulin 6 nM
  magnitude of insulin-induced increase in muscle glycogen synthesis: 0.13±0.03 nmol glucose/mg/hr
  rate of muscle glycogen synthesis with insulin: 0.40±0.05 nmol glucose/mg/hr
Soleus muscle strips; no insulin
  rate of muscle glycogen synthesis without insulin: 0.27±0.03 nmol glucose/mg/hr
islets
  insulin content in islets vs control islets: comparable
Mouse islets [3]; 100 μM ALLM or E-64-d, 4 hr preincubation
  NAD(P)H response to increase in glucose from 2 to 14 mM: 2.7±0.4 fold increase
Mouse islets [3]; 48 h treated islets
  NAD(P)H responses to KIC vs control: significantly reduced
  NAD(P)H responses to glucose vs control: comparable
